According to ChEMBL document CHEMBL5131393 (J Med Chem, 2021):

Assays:
[1] = test system: Human immunodeficiency virus 1; assay: Antiviral activity against HIV-1 pseudovirus infected in human TZM-bl cells preincubated with virus for 30 mins followed by cell infection and measured after 3 days by luciferase assay; format: functional, organism-based; details: Human immunodeficiency virus 1, TZM-bl
TZM = assay: Cytotoxicity against human TZM-bl cells assessed as reduction in cell viability measured after 3 days by XTT assay; format: functional; details: 72 h, time 3 day
[2] = biological target: Human immunodeficiency virus type 1 reverse transcriptase (Human immunodeficiency virus 1, UniProt Q72547); assay: Inhibition of recombinant HIV-1 reverse transcriptase incubated for 2 hrs by colorimetric assay
[3] = biological target: Human immunodeficiency virus type 1 reverse transcriptase (Human immunodeficiency virus 1) (UniProt Q72547); assay: Potency index, ratio of test compound IC50 to NBD-14189 IC50 for inhibition of recombinant HIV-1 reverse transcriptase incubated for 2 hrs by colorimetric assay

Question: Which EC50 [1] does the source give for `Cc1ccc(-c2ccc(C(=O)N[C@H](CN)c3ncc(CO)s3)[nH]2)cc1F` here?
Answer: The EC50 was 0.45 µM.

Question: What about the CC50 (TZM) of the same compound?
Answer: The CC50 was 38.8 µM.

Question: And the IC50 [2]?
Answer: Its IC50 is 7.2 µM.

Question: `NC[C@H](NC(=O)c1ccc(-c2ccc(C(F)(F)F)cn2)[nH]1)c1nc(CO)cs1` was tested. Which EC50 [1] did it give?
Answer: Its EC50 is 0.3 µM.

Question: And the CC50 (TZM)?
Answer: Its CC50 is 124 µM.

Question: What about the IC50 [2] of the same compound?
Answer: Its IC50 is 2.8 µM.

Question: Which results are given for `NC[C@H](NC(=O)c1ccc(-c2ccc(C(F)(F)F)cc2)[nH]1)c1nc(CO)cs1`?
Answer: EC50 [1]: 0.089 µM; CC50 (TZM): 21.9 µM; IC50 [2]: 1.5 µM

Question: For `NC[C@@H](NC(=O)c1ccc(-c2ccc(Cl)c(F)c2)[nH]1)c1ncc(CO)s1`, which EC50 [1] is on record?
Answer: Its EC50 is 0.57 µM.

Question: What about the CC50 (TZM) of the same compound?
Answer: The CC50 was 33 µM.

Question: What about the IC50 [2] of the same compound?
Answer: Its IC50 is 13.7 µM.

Question: How did the CC50 (TZM) turn out when `CC1(C)CC(NC(=O)C(=O)Nc2ccc(Cl)cc2)CC(C)(C)N1` was run?
Answer: The CC50 was 60 µM.

Question: What about the IC50 [2] of the same compound?
Answer: The IC50 was greater than 200 µM.

Question: What does the source list for `NC[C@@H](NC(=O)c1ccc(-c2ccc(C(F)(F)F)cn2)[nH]1)c1ncc(C(O)CO)s1` (stereo partly drawn)?
Answer: EC50 [1]: 2.1 µM; CC50 (TZM): > 113 µM

Question: How did the EC50 [1] turn out when `Cc1sc(C(CO)NC(=O)c2[nH]c(-c3ccc4c(c3)OCO4)cc2CN)nc1S` (stereo not drawn) was run?
Answer: Its EC50 is 2.3 µM.

Question: And the CC50 (TZM)?
Answer: The CC50 was 146 µM.

Question: What about the IC50 [2] of the same compound?
Answer: The IC50 was 30.6 µM.

Question: For `Cc1nc([C@@H](CN)NC(=O)c2ccc(-c3ccc(F)c(F)c3)[nH]2)sc1CO`, which EC50 [1] is on record?
Answer: The EC50 was 3.3 µM.

Question: And the CC50 (TZM)?
Answer: Its CC50 is 84.1 µM.

Question: How did the EC50 [1] turn out when `CNCc1cc(-c2ccc3c(c2)OCO3)[nH]c1C(=O)NCc1nc(S)c(CO)s1` was run?
Answer: Its EC50 is 2.7 µM.

Question: And the CC50 (TZM)?
Answer: Its CC50 is 95.8 µM.

Question: How did the EC50 [1] turn out when `NCc1cc(-c2ccc3c(c2)OCO3)[nH]c1C(=O)NC(CO)c1nc(S)cs1` (stereo not drawn) was run?
Answer: The EC50 was 4.3 µM.

Question: And the CC50 (TZM)?
Answer: The CC50 was 142 µM.

Question: What about the IC50 [2] of the same compound?
Answer: The IC50 was 39.5 µM.

Question: With `Cc1cc(-c2ccc(C(F)(F)F)cn2)[nH]c1C(=O)N[C@@H](CN)c1ncc(CO)s1` as the compound, how does the Ratio IC50 [3] read?
Answer: The Ratio IC50 was 2.

Question: And the CC50 (TZM)?
Answer: The CC50 was 109 µM.

Question: How did the EC50 [1] turn out when `Cc1nc(C(CNC2CCC2)NC(=O)c2ccc(-c3ccc(Cl)cc3)[nH]2)sc1CO` (single isomer, unassigned) was run?
Answer: The EC50 was 2.2 µM.

Question: And the Ratio IC50 [3]?
Answer: The Ratio IC50 was 31.

Question: What about the CC50 (TZM) of the same compound?
Answer: The CC50 was 24 µM.

Question: What about the IC50 [2] of the same compound?
Answer: Its IC50 is 43.4 µM.

Question: How did the CC50 (TZM) turn out when `Cc1nc([C@H](CN)NC(=O)c2ccc(-c3ccc(Cl)c(F)c3)[nH]2)sc1CO` was run?
Answer: Its CC50 is 40.5 µM.

Question: What about the IC50 [2] of the same compound?
Answer: The IC50 was 8.3 µM.

Question: Which CC50 (TZM) does the source give for `Cc1cc(-c2ccc(C(F)(F)F)cn2)[nH]c1C(=O)N[C@H](CN)c1nc(CO)cs1` here?
Answer: The CC50 was 85 µM.

Question: And the IC50 [2]?
Answer: Its IC50 is 5 µM.

Question: Which results are given for `NC[C@H](NC(=O)c1ccc(-c2cc(F)c(Cl)c(F)c2)[nH]1)c1ncc(CO)s1`?
Answer: CC50 (TZM): 39.5 µM; IC50 [2]: 8.4 µM
